Where two headings read alike, the source gives them in different places. Some results are limits rather than exact numbers.

Data set [1] concerns intracellular HCV protein (NS3-NS4-NS5A-NS5B). As to the kind of experiment: HCV viral protein expression assay using LuHCV cells (luciferase activity). Conditions: for luciferase activity (result in words): 0, 10 and 20 μM; for luciferase activity (result in words) / decrease in luminescence intensity compared with the control: 48 hours, LuHCV cells; for decrease in luminescence intensity compared with the control: 10 μM; for activity at 10 µM / activity at 20 µM: Hepatitis C virus, 48 h, read-out: luc activity (% control).
Protocol: As an HCV viral protein expression assay, screening was performed for compounds having anti-HCV activity using human hepatocytes with which the replication and expression of the intracellular HCV protein (NS3-NS4-NS5A-NS5B) can be evaluated through determination of luciferase activity (hereinafter, referred to as LuHCV).
LuHCV cells were plated onto 96-well plates at 5×10^3 cells/50 μL/well and then incubated overnight. Test compounds were each dissolved in dimethyl sulfoxide (DMSO) and dilution series were prepared using DMSO, if necessary. On the next day of plating of LuHCV cells, a medium containing a test compound with a concentration twice the final test concentration was added at 50 μL/well. Cells were gently cultured under culture conditions of 48 hours, 37° C., and 5% CO2 (the final concentrations of the test compounds: 0, 10, and 20 μM). At this time, analysis was made using 3 test wells for each test compound and for each concentration.
Culture medium was removed after 48 hours. Glo lysis buffer (100 μL) (Promega) was added to each well and then cells were disrupted, so that a cell extract was obtained. With the use of 50 μL of the thus obtained cell extract, 50 μL of a Bright-Glo™ Luciferase Assay System (Promega) reagent was added. Luciferase activity in the extract was determined by measuring luminescence intensity for one second using a measuring device ARVO (PerkinElmer Co., Ltd.).
Based on the thus obtained numerical values of luminescence intensity, an average value for each test compound at each concentration was calculated. The luminescence intensity percentage for each test compound was calculated based on a luminescence intensity for DMSO (used as a control for test substances) as 100%.
Culture medium was removed after 48 hours. Glo Lysis buffer (100 μL) (Promega) was added to each well and then cells were disrupted, so that a cell extract was obtained. With the use of 50 μL of the thus obtained cell extract, 50 μL of a Bright-Glo™ Luciferase Assay System (Promega) reagent was added. Luciferase activity in the extract was determined by measuring luminescence intensity for one second using a measuring device ARVO (PerkinElmer Co., Ltd.).
Based on the thus obtained numerical values of luminescence intensity, an average value for each test compound at each concentration was calculated. The luminescence intensity percentage for each test compound was calculated based on a luminescence intensity of DMSO (used as a control for test substances) as 100%.

Data set [2] concerns influenza virus. The conditions noted are these: for cell death due to influenza virus infection (result in words): 5 and 10 μM, 48 hours, MDCK cells.
For data set [3], the system named is LuHCV cells. As to the kind of experiment: Effects on the growth of LuHCV cells (hemocytometer count). It counts as cell-based, human. Conditions: 20 μM, 0, 6, 12, 24, 36 and 48 hours. As for the experimental part:
LuHCV cells were plated onto a 6-well plate at 5×10^4 cells/1 mL/well and then incubated overnight. […] The final concentration of Compound 5 was 20 μM. […] After addition of Compound 5, cells were collected from 3 wells at 0, 6, 12, 24, 36, and 48 hours later, the number of viable cells per well was measured using a hemocytometer, and then the average value was calculated. Wells to which only DMSO had been added were used as control wells.

The test system of data set [4] is HCV RNA (NS5A). As to the kind of experiment: Effects on replication and stability of HCV RNA (RT-PCR) in LuHCV cells. Conditions: 20 μM, 14 hours and 60 hours. The data set is classed as cell-based, hepatitis C virus (HCV). As for the experimental part: LuHCV cells were plated onto 10-cm dishes at 1×10^6 cells/dish and then incubated overnight or longer. Subsequently, Compound 5 dissolved in DMSO was added at a final concentration of 20 μM. Cells were further gently cultured under culture conditions of 37° C. and 5% CO2. DMSO alone was added to a control dish. At 14 hours and 60 hours after addition of Compound 5, cells were collected and then total RNA was extracted using Sepasol-RNA (NACALAI TESQUE, INC.). cDNA was synthesized using SuperScript II reverse transcriptase (Invitrogen) and oligo-dTprimer (Promega) or random primers (Invitrogen Corporation). PCR was performed using the thus synthesized cDNA as a template, NS5A-specific primers (5′-[…]-3′ (SEQ ID NO: 1) and 5′-[…]-3′ (SEQ ID NO: 2)), GAPDH primers (5′-[…]-3′ (SEQ ID NO: 3) and 5′-[…]-3′ (SEQ ID NO: 4)), and PrimeSTAR HS DNA polymerase (Takara Bio Inc.). After DNA amplification reaction, agarose gel electrophoresis and ethidium bromide staining were performed. The expression level of each gene was evaluated using a UV transilluminator.

The subject of data set [5] is HCV-NS5A protein. Briefly: HCV protein expression-suppressing activity by Western blotting in LuHCV cells. The data set is classed as cell-based, hepatitis C virus (HCV). Conditions: 20 μM, 14 hours and 60 hours. Here is the method:
LuHCV cells were plated onto 10-cm dishes at 1×10^6 cells/dish and then incubated overnight or longer. Subsequently, Compound 5 dissolved in DMSO was added at a final concentration of 20 μM. Cells were further gently cultured under culture conditions of 37° C. and 5% CO2. DMSO alone was added to a control dish. At 14 hours and 60 hours after addition of Compound 5, cells were collected. Cells were lysed using a cell lysis solution (25 mM NaPO4 (pH 7.5), 150 mM NaCl, 1% Triton X-100, 1 mM EDTA, 20% glycerol, and protease inhibitor cocktail (Roche Diagnostics)), so that cell extracts were obtained. With the use of the thus obtained cell extracts (10 μg each), expression analysis was performed by Western blotting for an HCV-NS5A protein (an antibody was purchased from Virogen) and β-actin (an antibody was purchased from Sigma).
A general note: Immunoblotting shows a protein as a band on a membrane.

A short description of data set [6]: Toxicity test by repeated in vivo administration. The arrangement: species or system mice (Cr1j/CD1 (ICR) mice, male). Conditions: oral. As for the experimental part: A conditioning period of one week (day-7 to day-1) was provided for mice (Cr1j/CD1 (ICR) mice, male, 5-week-old), and then the mice were grouped based on the mean body weight on the day before the initiation of the test. Also, the dose of Compound 5 was calculated based on the mean body weight (day-1). There were 2 groups to which Compound 5 was administered: a placebo-administered group (n=6) to which a placebo was administered and a Compound 5-administered group (n=6) to which Compound 5 was administered. On the days of administration (day 00 to day 07), the test compound formulated using 0.5% carboxymethyl cellulose was administered via oral administration for 7 days in a row. Symptoms were observed during the administration period.
During the test period, the body weight of each mouse was weighed on day −7, day −3, day −1, day 4, and day 7.

Data set [7] deals with LuHCV cells. As to the kind of experiment: Evaluation of cell growth suppression using LuHCV cells (percentage of viable cells, reagent SF). The data set is classed as cell-based, human. The conditions noted are these: 48 hours, DMSO = 100%. Here is the method: At this time, as a background absorbance, measurement was also performed for wells containing test compounds (or DMSO used as a control), but containing no cells. Each of the thus obtained background numerical values was deducted from the absorbance of a cell-containing well (measured for the same compound at the same concentration). The resulting value was designated as actual measurement of number of viable cells containing no background. […] With an average value measured for DMSO used as a control test substance designated as 100%, the percentage of the number of viable cells for each test compound was calculated.
At this time, as a background absorbance, measurement was also performed for wells containing test compounds (or containing DMSO used as a control), but containing no cells. Each of the thus obtained background numerical values was deducted from the absorbance of a cell-containing well (measured for the same compound at the same concentration). The resulting value was designated as actual measurement of number of viable cells containing no background. […] By using a value measured upon addition of DMSO used as a control test substance designated as 100%, the percentage of the number of viable cells for each test compound was calculated. Table 1-2 and FIG. 2B show the percentage of the number of viable cells (cell viability (% control)) for each test compound at each concentration.

Regarding `O=C(NC(=S)Nc1cc(C(F)(F)F)ccc1N1CCCCCCCC1)c1cccnc1` [Compound 6, N-nicotinoyl-N′-[2-(azacyclononan-1-yl)-5-(trifluoromethyl)phenyl]thiourea], the “luciferase activity (result in words)” value in data set [1] was “Decreases in luciferase activity”. In data set [1], the “decrease in luminescence intensity compared with the control” value was “about 50%”. Further, the “viability (% control)” value in data set [2] (5 µM) was 42.1 ± 1.5 % control; in data set [2] (10 µM) it was 80.9 ± 3.2 % control. Further, in data set [2], the “cell death due to influenza virus infection (result in words)” value (from here on “cell death due”) is listed as “cell death was decreased”.

On to `O=C(NC(=S)Nc1cc(C(F)(F)F)ccc1N1CCCCCCC1)c1cccnc1` [Compound 5, N-nicotinoyl-N′-[2-(azacyclooctan-1-yl)-5-(trifluoromethyl)phenyl]thiourea], for which the “number of viable cells at each time point versus DMSO control” value in data set [3] was “Almost no differences were observed”. In addition, in data set [4], the “amount of NS5A and GAPDH RNA (RT-PCR)” value is recorded as “no quantitative change was observed”. Moreover, in data set [1], the “luciferase activity (result in words)” value is reported as “Decreases in luciferase activity” and the “decrease in luminescence intensity compared with the control” value is “about 50%”. In data set [5], the “expression level of NS5A (Western blotting)” value was “a decrease in the expression level of NS5A was observed” and the “expression level of β-actin (Western blotting)” value is listed as “no change was observed”. Also, the “dead mice during the administration period” value in data set [6] (1000 mg/kg/day, 7 days) is “no dead mice were observed”. In addition, in data set [6] (7 days repeated administration, mice), the “level at which no adverse effect is observed” value is given as at least 1000 mg/kg. The “viability (% control)” value in data set [2] (5 µM) was 41.8 ± 2.2 % control. In data set [2] (10 µM), the “viability (% control)” value is 63.1 ± 0.9 % control. Also, the “cell death due” value in data set [2] is listed as “cell death was decreased”.

With `O=C(NC(=S)Nc1cc(C(F)(F)F)ccc1N1CCCCCCC1)c1ccccc1` [Compound 14, N-benzoyl-N′-[2-(azacyclooctan-1-yl)-5-(trifluoromethyl)phenyl]thiourea], the “viability (% control)” value in data set [7] (10 μM) amounted to 103.81 % control; in data set [7] (20 μM), 103.76 % control; in data set [2] (5 µM), 71.6 ± 2.2 % control; in data set [2] (10 µM), 100.0 ± 2.0 % control. Besides, in data set [1], the activity at 10 µM is 30.3%. Moreover, in data set [1], the activity at 20 µM came out at 14.8%. In data set [2], the “cell death due” value was “cell death was decreased”.

Turning to `FC(F)(F)c1ccc(N2CC[C@H]3CCCC[C@@H]3C2)c(NC(=S)c2ccncc2)c1` (relative stereo) [Compound 22, N-[2-(trans-3-azabicyclo[4.4.0]decan-3-yl)-5-(trifluoromethyl)phenyl]isonicotinthioamide], the “viability (% control)” value in data set [7] (10 μM) came to 104.65 % control. The “viability (% control)” value in data set [7] (20 μM) is 96.39 % control. Moreover, in data set [1], the activity at 10 µM is 42.6% and the activity at 20 µM came out at 21.9%.

For the origin of these results see patent publication US8765941B2 (Kino Pharma, Inc., priority 2008, dated 2014).
